In data set [1] the test system is climbing behaviour in mice, induced by apomorphine (dopamine receptors). Nature of the data set: Apomorphine climbing test (ACT) in mice. In kind it is in vivo. The following applies: Mus musculus, 0.75 mg/kg apomorphine HCl sc after 30 min, scored at 10 and 20 min. The source says:
Apomorphine Climbing Test In Mice
The ability of dopamine receptor antagonists to inhibit the behavioural effects in rodents caused by dopamine agonists such as apomorphine is a well established criterion for predicting the antipsychotic efficacy of these drugs in man (see e.g. W. C. Bowman and M. J. Rand, Textbook of Pharmacology, 2nd ed., 1980, 15, 6). A particularly relevant test in this respect is the apomorphine climbing test (ACT) which measures the ability of a dopamine antagonist to inhibit the climbing behaviour in mice, induced by the subcutaneous or oral administration of apomorphine. Activity in this test, following systemic and oral administration, has been widely used as a predictor of antipsychotic activity i.e. anti-schizophrenic activity (see e.g. J. T Strupczewski et.al., J. Med. Chem., 1995, 38, 1119). Mice treated with apomorphine HCl tend to adopt a vertical position along the wall of a wire mesh cylinder, standing or climbing. This climbing behaviour is considered to be elicited by apomorphine-mediated stimulation of dopamine receptors. […] Test compounds which modulate this climbing behaviour may have anti-psychotic activity.
The various treatments are randomly distributed over the mice. Each experiment consists of 1+n treatment groups: 1 being a control group of 12 mice receiving apomorphine and vehicle subcutaneously or being a control group of 12 mice receiving apomorphine subcutaneously and vehicle orally; n being (usually 4) compound groups of 12 mice receiving apomorphine and test compound subcutaneously or being compound groups of 12 mice receiving apomorphine subcutaneously and test compound orally.
Experiments are performed in 3 runs of 20 mice each. The mice are marked and weighed, test compound or vehicle is administered subcutaneously and the mice are placed in small Macrolon cages of 17×11×13 cm, 5 mice per cage, or test compound or vehicle is administered orally and the mice are placed in Macrolon cages of 29×11×13 cm, 5 mice per cage. After 30 min 0.75 mg/kg apomorphine HCl is administered subcutaneously in mice treated subcutaneously with vehicle or test compound, or 0.75 mg/kg apomorphine HCl is administered subcutaneously in mice treated orally with vehicle or test compound, and the mice are placed individually in a wire mesh cylinder (diameter 12 cm, height 14 cm).
At 10 min after the treatment with apomorphine the climbing behaviour of each mouse is observed and expressed as a score, according to the following grade: […]
4 paws on the floor score 0
1 or 2 paws holding the wall score 1
3 or 4 paws holding the wall score 2
At 20 min after the treatment with apomorphine the climbing behaviour is observed and scored again. For each treatment group the mean score per mouse is determined. The score of the control group should be at least 1.0; if not, the trial is rejected. The final result per group is expressed as the percentage over the control group.
The results of this test for the present test compounds are denoted in Table I (subcutaneous and oral administration of test compound).

Data set [2] relates to catalepsy. Nature of the data set: Catalepsy in rats (CATR). It counts as in vivo, Male Wistar rats. The protocol: (§1) Catalepsy in rats: Male Wistar rats (100-125 g, Olac UK) were used for catalepsy experiments. Catalepsy was assessed as described previously (Broekkamp et al, Naunyn Schmiedeberg's Arch. Pharmacol. 338, 191 1988). Briefly, rats were tested in 6 different observation trials in which the animals were placed in abnormal postures and scored positively with one point for maintaining the imposed posture for 10s. The imposed postures were; vertical clinging to a grid, upright standing with a high support for the front paws, extension of hindlegs, placement on back, placement of spatula in the mouth and rotation in a wire mesh cylinder.
(§2) Theoretically a maximum score of 6 can be reached. Catalepsy was assessed at 60 and 120 minutes after drug administration. The data were evaluated by 2 way ANOVAR followed by a Newman Kools post hoc test and ED50 values calculated (Table II).

Data set [3] in a line: Catalepsy in rats (CATR). In kind it is in vivo, Male Wistar rats. The note with it: rat; catalepsy assessed at 60 and 120 minutes after drug administration. The protocol:
as §1, §2

Setting [4] is: po administration of test compound.
Where [5] appears, read: sc administration of test compound.

On to `CN1CCC(=C(c2ccc(F)cc2)c2cccs2)CC1` [Compound A, 1-methyl-4-[(2-thienyl)-(4-fluorophenyl)]methylenepiperidine, reference compound], for which the ED50 (commonly the dose that gives a 50% effect, or the effect in half of the subjects) in data set [1] (setting [4]) stood at 100 mg/kg; in data set [1] (setting [5]) it was 2.8 mg/kg.

In data set [1] (setting [5]), `CN1CCC(=C(c2ccccc2)c2cccs2)CC1` [Compound B, 1-methyl-4-(2-thienyl)-phenyl-methylenepiperidine, reference compound] had an ED50 of 22 mg/kg.

On to `CN1CCC(=C(c2ccccc2)c2ccc(Cl)s2)CC1` [Compound C, 1-methyl-4-[(-5-chloro-2-thienyl)-phenyl]methylenepiperidine, reference compound], for which it took a dose of 22 mg/kg to reach the 50% effect level in data set [1] (setting [5]) (ED50).

Consider `CN1CCC(=C(c2ccc(F)cc2)c2cc(Cl)cs2)CC1` [Example 2, 1-methyl-4-[(4-chloro-2-thienyl)-(4-fluorophenyl)]-methylene-piperidine], for which the “CATR score at max dose” value in data set [2] (at 56 mg/kg, theoretical maximum score 6, 60 and 120 minutes) is on record as 0.2. Besides, the ED50 in data set [3] is more than 50 mg/kg; in data set [1] (setting [4]), 5 mg/kg; in data set [1] (setting [5]), 0.6 mg/kg.

As to `Cc1csc(C(=C2CCN(C)CC2)c2ccc(F)cc2)c1` [Example 3, 1-methyl-4-[(4-methyl-2-thienyl)-(4-fluoropheny)]methylene-piperidine], the “CATR score at max dose” value in data set [2] (at 75 mg/kg, theoretical maximum score 6, 60 and 120 minutes) is 0.2. Also, the ED50 is more than 75 mg/kg in data set [3], 8.6 mg/kg in data set [1] (setting [4]) and 1.5 mg/kg in data set [1] (setting [5]).

Consider `CN(C)CCCN1c2ccccc2Sc2ccc(Cl)cc21` [chlorpromazine, reference compound], for which the “CATR score at max dose” value in data set [2] (rat, in vivo, 14 mg/kg) is reported as 5.3. In addition, it took a dose of 4.8 mg/kg to reach the 50% effect level in data set [3] (ED50).
